Test [1] is described as follows: Inhibition of PDE9.
The target in test [2] is High affinity cGMP-specific 3',5'-cyclic phosphodiesterase 9A (Homo sapiens, UniProt O76083). The experiment in a line: Inhibition of human PDE9A expressed in Escherichia coli BL21 by liquid scintillation counting.

Here are results for two molecules from ChEMBL document CHEMBL1154916, “Insight into binding of phosphodiesterase-9A selective inhibitors by crystal structures and mutagenesis” (J Med Chem, 2010).

Some results are limits rather than exact numbers.

Sequence of High affinity cGMP-specific 3',5'-cyclic phosphodiesterase 9A (O76083 whole entry): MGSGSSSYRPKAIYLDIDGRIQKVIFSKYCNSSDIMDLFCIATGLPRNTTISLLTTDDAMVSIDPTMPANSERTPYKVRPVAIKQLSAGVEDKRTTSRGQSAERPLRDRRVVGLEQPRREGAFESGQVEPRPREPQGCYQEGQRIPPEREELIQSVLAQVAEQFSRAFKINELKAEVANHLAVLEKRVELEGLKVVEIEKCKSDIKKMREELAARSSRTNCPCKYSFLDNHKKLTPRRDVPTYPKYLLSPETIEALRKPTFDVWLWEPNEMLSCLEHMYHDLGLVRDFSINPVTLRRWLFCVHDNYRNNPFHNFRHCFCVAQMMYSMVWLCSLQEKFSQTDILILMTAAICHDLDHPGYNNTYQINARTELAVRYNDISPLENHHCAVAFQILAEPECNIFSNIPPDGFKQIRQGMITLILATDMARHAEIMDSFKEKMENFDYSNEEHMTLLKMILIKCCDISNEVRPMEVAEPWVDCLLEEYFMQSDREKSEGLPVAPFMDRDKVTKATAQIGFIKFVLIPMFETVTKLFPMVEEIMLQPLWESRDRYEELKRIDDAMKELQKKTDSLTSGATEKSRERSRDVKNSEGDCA

One may read the IC50 as the point on the concentration scale where inhibition reaches its midpoint. Low values mean greater potency, high ones weaker potency. With `C[C@H](Cc1nc2c(cnn2-c2ccccc2Cl)c(=O)[nH]1)C(F)(F)F`, it took 55 nM to reach half-maximal inhibition in test [1] (IC50).
Regarding `CC(C)Cn1c(=O)n(C)c(=O)c2[nH]cnc21` [ISOBUTYLMETHYLXANTHINE], the IC50 in test [2] is above 200000 nM.
